Results: patent publication US8455479B2, “Heterocyclic compounds” (Panacea Biotec Limited, priority 2008, dated 2013)

Legend:
[1] = target: DPP-IV (UniProt P27487); assay: In-vitro DPP-IV assay (cleavage of pNA from Gly-Pro-pNA); assay type: biochemical, porcine kidney or human recombinant; conditions: for IC50: DPP-IV; for % Inhibition: DPP-IV inhibition at 100 nM
Procedure: Protocol for In-Vitro DPP-IV Assay
DPP-IV activity was determined by the rate of cleavage of p-nitro aniline (pNA) from synthetic substrate Glycine-Proline-pNA. The assay was conducted by adding 1 μg of porcine kidney or human recombinant DPP-IV enzyme (Sigma Aldrich, USA) in 100 μL of the assay buffer (100 mM Tris, pH 7.4, 140 mM NaCl, 10 mM KCl, 1% BSA) to 96 well Cellstar flat bottom microtitre plates (Greiner Bio-one, Germany). The reaction was initiated by adding 80 μl of 500 μM substrate Gly-Pro-pNA. The incubation was carried out in the kinetic mode at 30° C. for 30 min. Absorbance was measured using Synergy HT Biotek Multiplate reader at 410 nm. Test compounds and solvent controls were added as 10 μL additions. A standard curve of free p-nitro, aniline (pNA) was generated using 0-2000 μM pNA in the assay buffer. In addition DPP-IV activity was also determined by using Fluorogenic substrate (Gly-Pro-AMC) using human recombinant DPP-IV enzyme (Sigma Aldrich USA).
Test compounds dissolved in DMSO at 9-10 different concentrations were tested in triplicates along with the solvent control and blank samples. % age inhibition was calculated at each concentration with respect to the solvent control (no test compound added). IC50 values were calculated from 3 experiments using the Graph Pad Prism or Sigma Stat software.

[2] = system: C57BL/6J mice; assay: Oral glucose tolerance test (OGTT) in C57BL/6J mice; assay type: in vivo; conditions: for ED50 (mg/kg p.o.): OGTT in C57BL/6J mice; for % Reduction in glucose excursion: OGTT in C57BL/6J mice at 3 mg/kg body weight, glucose 2 g/kg p.o., glucose AUC
Procedure: Oral Glucose Tolerance Test (OGTT) in C57BL/6J Mice
The oral glucose tolerance test (OGTT) measures the body's ability to use glucose that is the body's main source of energy. OGTT serves as a primary in-vivo screen to select efficacious test compounds for their antidiabetic activity. Compounds were formulated in 0.25% CMC with a drop of tween 80 (optional). C57BL/6J male mice (8-9 weeks) were fasted overnight and randomized into different groups (n=6) on body weigh basis. At T−15 min blood was collected from each group for glucose estimation. At T0 compounds or vehicle were administered with simultaneous administration of glucose (2 g/kg p.o.) to each group. RO water was administered to no glucose control group. Blood samples were collected from retro-orbital plexus at 15, 30, 60 and 120 min post dosing for glucose estimation. The AUC for glucose was calculated to get the reduction in glucose excursion.

SMILES | IC50 [1] | % Inhibition [1] | ED50 (mg/kg p.o.) [2] | % Reduction in glucose excursion [2]
N[C@@H](CC(=O)N1Cc2ccccc2-n2ccnc2C1)Cc1cc(F)c(F)cc1F [Compound 95] | 0.001 to 0.1 µM | Y (Y: 50-100% DPP-IV inhibition at 100 nM) |  | 
CN(C(=O)CN1C(=O)CN(C(=O)C[C@H](N)Cc2cc(F)c(F)cc2F)Cc2ccccc21)C1CC1 [Compound 39] |  | Y (Y: 50-100% DPP-IV inhibition at 100 nM) |  | 
N[C@@H](CC(=O)N1CC(=O)N(CC(=O)NC2CC2)c2cc(F)ccc2C1)Cc1cc(F)c(F)cc1F [Compound 38] | 0.001 to 0.1 µM | Y (Y: 50-100% DPP-IV inhibition at 100 nM) |  | 

Continued, in another order:

IC50 [1] | SMILES | % Inhibition [1] | ED50 (mg/kg p.o.) [2] | % Reduction in glucose excursion [2]
0.001 to 0.1 µM | N[C@@H](CC(=O)N1CC(=O)Nc2cc(F)ccc2C1)Cc1cc(F)c(F)cc1F [Compound 3] | Y (Y: 50-100% DPP-IV inhibition at 100 nM) | 0.7 mg/kg p.o. | 37%
0.001 to 0.1 µM | N[C@@H](CC(=O)N1CC(=O)Nc2ccccc2C1)Cc1cc(F)c(F)cc1F [Compound 2] | Y (Y: 50-100% DPP-IV inhibition at 100 nM) | 0.4 mg/kg p.o. | 51%
